Laboratory results from the supplement of paper PMC8633005.

Assays:
[1] = system: FM-MEL-2; settings: 72 h
Description: (§1)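 Validation dose-response testing of selected drugs on NRAS-mutant melanoma patient-derived cells, run in 2D culture and in 3D spheroids (ultra-low attachment plates), in triplicate per concentration. Viability was read by CellTiter-Glo after 72 h. EC50 came from Breeze curve fitting, and DSS was calculated from the curve.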

[2] = system: FM-MEL-3; settings: 72 h
Description: as §1

[3] = system: FM-MEL-6; settings: 72 h
Description: as §1

[4] = system: FM-MEL-2; test: drug sensitivity score (DSS) (DSS (unitless)); higher = more sensitive; settings: 72 h
Description: as §1

[5] = system: FM-MEL-3; test: as above; settings: 72 h
Description: as §1

[6] = system: FM-MEL-6; test: as above; settings: 72 h
Description: as §1

[7] = system: Bowes; test: drug sensitivity score (DSS) (DSS (unitless, 0-50 scale)); higher = more sensitive (stronger viability inhibition); extreme values may be limits of the assay; settings: 72 h; culture: 2D
Summary of the method: (§2)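 Viability was measured by CellTiter-Glo luminescence after 72 h at 37 °C in 384-well plates holding a 527-compound oncology library, with patient-derived melanoma cultures (1000–1500 cells per well) and melanoma cell lines grown in 2D. Every compound was tested at five concentrations spanning a 10,000-fold range. The drug sensitivity score, a modified area under the curve, came from dose-response curves fitted with in-house Breeze software.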

[8] = system: FM-MEL-2; test: as above; settings: 72 h; culture: 2D
Summary of the method: as §2

[9] = system: FM-MEL-3; test: as above; settings: 72 h; culture: 2D
Summary of the method: as §2

[10] = system: FM-MEL-6; test: as above; settings: 72 h; culture: 2D
Summary of the method: as §2

[11] = system: SK-MEL-28; test: as above; settings: 72 h; culture: 2D
Summary of the method: as §2

[12] = system: SK-MEL-2; test: as above; settings: 72 h; culture: 2D
Summary of the method: as §2

[13] = system: WM165; test: as above; settings: 72 h; culture: 2D
Summary of the method: as §2

[14] = system: WM852; test: as above; settings: 72 h; culture: 2D
Summary of the method: as §2

SMILES | EC50 (cell viability) ([1]; culture: 2D) | EC50 (cell viability) ([1]; culture: 3D spheroid) | EC50 (cell viability) ([2]; culture: 2D) | EC50 (cell viability) ([2]; culture: 3D spheroid) | EC50 (cell viability) ([3]; culture: 2D) | EC50 (cell viability) ([3]; culture: 3D spheroid) | drug sensitivity score ([4]; culture: 2D) | drug sensitivity score ([4]; culture: 3D spheroid) | drug sensitivity score ([5]; culture: 2D) | drug sensitivity score ([5]; culture: 3D spheroid) | drug sensitivity score ([6]; culture: 2D) | drug sensitivity score ([6]; culture: 3D spheroid) | drug sensitivity score [7] | drug sensitivity score [8] | drug sensitivity score [9] | drug sensitivity score [10] | drug sensitivity score [11] | drug sensitivity score [12] | drug sensitivity score [13] | drug sensitivity score [14]
COc1cccc(OCCCN)c1-c1cc(Nc2cnc(C#N)cn2)n[nH]1 [Prexasertib] | 0.851 µM | 2.03 µM | 0.052 µM | 0.0487 µM | 0.137 µM | 6.57 µM | 7.7 | 4.9 | 21.1 | 25.6 | 6.4 | 0.8 | 28.6 | 10.5 | 19.1 | 26.6 | 8.6 | 28.7 | 24.1 | 27.7
CC(C)(C)c1cc(NC(=O)Nc2ccc(-c3cn4c(n3)sc3cc(OCCN5CCOCC5)ccc34)cc2)no1 [Quizartinib] | 0.0957 µM | 0.0453 µM | > 1 µM | > 1 µM | > 1 µM | > 1 µM | 10.5 | 14.5 | 0 | 0 | 0 | 0 | 1.2 | 10.5 | 5.1 | 0 | 0 | 0 | 1 | 0.3
COc1cc(OC)c(/C=C/S(=O)(=O)Cc2ccc(OC)c(NCC(=O)O)c2)c(OC)c1 [Rigosertib] | 0.0442 µM | 0.11 µM | 0.042 µM | 0.0392 µM | 0.0562 µM | 1.54 µM | 10.8 | 10.5 | 13.2 | 16.9 | 8.6 | 1.3 | 19.9 | 7.6 | 15.5 | 18.6 | 9.5 | 17 | 21.4 | 22.6
Cn1cnc2c(F)c(Nc3ccc(Br)cc3Cl)c(C(=O)NOCCO)cc21 [Selumetinib] | 0.0756 µM | 0.071 µM | 0.0789 µM | 0.0564 µM | 0.0836 µM | 0.0561 µM | 19.7 | 20.3 | 23.8 | 27.1 | 16.3 | 21.9 | 0 | 16.5 | 24.9 | 13 | 18.2 | 13.2 | 17.3 | 4.9
CC(=O)Nc1cccc(-n2c(=O)n(C3CC3)c(=O)c3c(Nc4ccc(I)cc4F)n(C)c(=O)c(C)c32)c1 [Trametinib] | 0.0006 µM | 0.0005 µM | 0.0008 µM | 0.0002 µM | 0.0013 µM | 0.0005 µM | 22.3 | 23.3 | 27.6 | 34.6 | 17.1 | 24 | 1.8 | 18.1 | 26.1 | 15.6 | 21.1 | 17.9 | 21.2 | 6.8
CC(C)Nc1cc(-c2c[nH]c(C(=O)N[C@H](CO)c3cccc(Cl)c3)c2)c(Cl)cn1 [Ulixertinib] | 0.127 µM | 0.076 µM | 0.279 µM | 0.0831 µM | 0.236 µM | 0.125 µM | 16.5 | 19.4 | 17 | 25.2 | 8.1 | 15.3 | 4.2 | 15 | 17.1 | 7.6 | 13.3 | 9.7 | 12.6 | 4.1
CCC1=C[C@@H]2CN(C1)Cc1c([nH]c3ccccc13)[C@@](C(=O)OC)(c1cc3c(cc1OC)N(C)[C@H]1[C@@](O)(C(=O)OC)[C@H](OC(C)=O)[C@]4(CC)C=CCN5CC[C@]31[C@@H]54)C2 [Vinorelbine] | – | – | – | – | – | – | – | – | – | – | – | – | 31.6 | 7.7 | 12.5 | 23.3 | 11 | 25.6 | 28.8 | 23.1
CS(=O)(=O)c1ccc(C(=O)Nc2ccc(Cl)c(-c3ccccn3)c2)c(Cl)c1 [Vismodegib] | – | – | – | – | – | – | – | – | – | – | – | – | 0 | 0 | 0 | 0 | 0 | 0 | 0 | 0
CNC(=O)c1cccc(-c2ccc3c(N4CCOC[C@@H]4C)nc(N4CCOC[C@@H]4C)nc3n2)c1 [Vistusertib] | – | – | – | – | – | – | – | – | – | – | – | – | 14 | 11 | 11.6 | 12.6 | 12.1 | 8.8 | 12.5 | 8.5
CC[C@@H]1C(=O)N(C)c2cnc(Nc3ccc(C(=O)N[C@H]4CC[C@H](N5CCN(CC6CC6)CC5)CC4)cc3OC)nc2N1C(C)C [Volasertib] | – | – | – | – | – | – | – | – | – | – | – | – | 17.5 | 2.6 | 6.5 | 3.7 | 3.1 | 8.1 | 13.3 | 14.9
O=C(CCCCCCC(=O)Nc1ccccc1)NO [Vorinostat] | – | – | – | – | – | – | – | – | – | – | – | – | 0.7 | 5.6 | 9.2 | 8.4 | 7.9 | 6.1 | 9.1 | 4.4
Oc1nc(-c2ccc(C(F)(F)F)cc2)nc2c1CSCC2 [XAV-939] | – | – | – | – | – | – | – | – | – | – | – | – | 0 | 0 | 0 | 0 | 0 | 0 | 0 | 0
FC(F)c1nc2ccccc2n1-c1nc(N2CCOCC2)nc(N2CCOCC2)n1 [ZSTK474] | – | – | – | – | – | – | – | – | – | – | – | – | 7 | 10.8 | 7.2 | 8.7 | 12.2 | 4.6 | 9 | 7
Cc1sc2c(c1C)C(c1ccc(Cl)cc1)=N[C@@H](CC(=O)NCCCCNC(=O)COc1cccc3c1C(=O)N(C1CCC(=O)NC1=O)C3=O)c1nnc(C)n1-2 (some centres undefined) [dBET1] | – | – | – | – | – | – | – | – | – | – | – | – | 9.1 | 3.5 | 7.1 | 4.6 | 3 | 0 | 10.3 | 0
